Assay results from patent publication US12453709B2, “Compositions and methods for treating autism” (priority 2013, dated 2025).

Assays:
[1] = tested on: male patients diagnosed with autism; assay: Study HT 02-121: Social Responsiveness Scale (SRS-2); type: in vivo, human; settings: for SRS-2 Total T-Score: patients changing category of severity: placebo 2; for SRS-2 DSM-5 Social, Communication and Interaction T-score: patients with changes in severity categorization / SRS-2 Social Communication T-score: patients with categorical improvement / SRS-2 Social Motivation T-score: patients with categorical changes in clinical severity: placebo 3
Description: (§1) This clinical study was a randomized double-blind, placebo-controlled two-cohort, 4-week dose-escalation study that incorporated two open-label treatment groups to assess the safety and efficacy of L1-79 100 mg and 200 mg TID in male patients between the ages of […] years of age diagnosed with autism. The first cohort of 20 patients was comprised of three groups of patients: The first group of five patients received open-label L1-79 100 mg TID and underwent PK and EKG assessments. The remaining two groups in this cohort consisted of 15 patients randomized on a 2:1 basis to receive L1-79 100 mg TID or placebo. The PK and safety data from the open-label L1-79 100 mg TID group was submitted to FDA for review and acceptance before the second cohort was enrolled. The second cohort was procedurally identical to the first. The second cohort of 20 patients was comprised of the same three groups of patients but a dose of 200 mg TID was used instead of 100 mg TID. The key inclusion criteria were as follows: (1) males between 13 and 21 years of age, (2) DSM-5 compliant diagnosis of autism spectrum disorder, confirmed by the Autistic Diagnosis Interview Review (ADIR), and by an ADOS-2 score consistent with a diagnosis of autism, (3) must have been stable on no more than one concomitant medication and no planned changes in psychosocial interventions during the study.
(§2) The primary efficacy endpoint was the determination of the clinical improvement by the investigator as documented by the Clinical Global Impression (CGI) rating scales. Additional efficacy endpoints included: (1) changes from baseline in the Socialization and Communication Domains of the Vineland Adaptive Behavior Scales, Second Edition (VABS II) parent/caregiver rating form, (2) changes from baseline in the ADOS-2 Total Score and subscores, (3) changes in the Social Responsiveness Scale, Second Edition (SRS-2) Total Score and subscales, (4) changes in the ABC-C domains, (5) changes in the Repetitive Behavior Scale-Revised (RBS-R) Total Score and subscales. Given the exploratory design of this study only descriptive statistics were planned.
(§3) In the preliminary study, all forms were completed at the study site in the presence of the investigator. In Cohort 1 of the present study, the VABS-II, SRS-2, ABC-C and RBS-R were filled out at home by the patient/patient's families prior to treatment visits and returned at treatment visits in order to expedite the execution of the study.
This definition is consistent with accepted standards for judging mid and long term outcomes for experimental treatments studied in nearly every disorder, including autism. […] In ASD, children often go through periods of mild to moderate improvement or worsening in their behavioral, social and emotional symptom regulation related to a variety of identifiable and as yet unidentified factors (Boso, 2010; Jyonouchi, 2011). Thus, in a study of short duration, a ‘baseline’ measure may in fact be at the apex, midpoint or nadir of one of these oscillations.
The Social Communication and Interaction scale are comprised of the DSM-5 criteria that make up the social communication and social interaction deficits required for the diagnosis of ASD.

[2] = tested on: male patients diagnosed with autism; assay: Study HT 02-121: Repetitive Behavior Scale-Revised (RBS-R); type: in vivo, human; settings: for RBS-R Compulsive Behavior Mean Change from Baseline / RBS-R Compulsive Behavior Treatment effect versus placebo / RBS-R Compulsive Behavior change, median / RBS-R Restricted Behavior Mean Change from Baseline / RBS-R Restricted Behavior Treatment effect versus placebo / RBS-R Restricted Behavior change, median / RBS-R Ritualistic Behavior Mean Change from Baseline / RBS-R Ritualistic Behavior Treatment effect versus placebo / RBS-R Ritualistic Behavior change, median / RBS-R Sameness Behavior Mean Change from Baseline / RBS-R Sameness Behavior Treatment effect versus placebo / RBS-R Sameness Behavior change, median / RBS-R Self Injurious Behavior Mean Change from Baseline / RBS-R Self Injurious Behavior Treatment effect versus placebo / RBS-R Self Injurious Behavior change, median / RBS-R Stereotypic Behavior Mean Change from Baseline / RBS-R Stereotypic Behavior Treatment effect versus placebo / RBS-R Stereotypic Behavior change, median / RBS-R Total Score Mean Change from Baseline / RBS-R Total Score Treatment effect versus placebo / RBS-R Total Score change, median: Week 4/LOCF
Description: as §1, §2
as §3, with “study. […]” for “study.”

## CC(N)(Cc1ccc(O)cc1)C(=O)O (racemic) [L1-79, α-methyl-DL-tyrosine]
[1]; 100 mg group
  SRS-2 Total T-Score: patients changing category of severity: 2 patients
  SRS-2 DSM-5 Social, Communication and Interaction T-score: patients with changes in severity categorization: 2 patients
  SRS-2 Social Communication T-score: patients with categorical improvement: 3 patients
  SRS-2 Social Motivation T-score: patients with categorical changes in clinical severity: 4 patients
[1]; 200 mg group
  SRS-2 Total T-Score: patients changing category of severity: 3 patients
  SRS-2 DSM-5 Social, Communication and Interaction T-score: patients with changes in severity categorization: 4 patients
  SRS-2 Social Communication T-score: patients with categorical improvement: 4 patients
  SRS-2 Social Motivation T-score: patients with categorical changes in clinical severity: 6 patients
[1]; DB 100 mg TID, Week 4/LOCF
  SRS-2 DSM-5 Restricted and Repetitive Behavior T-score Mean Change from Baseline: −0.4
  SRS-2 DSM-5 Restricted and Repetitive Behavior T-score Treatment effect versus placebo: 7.2
  SRS-2 DSM-5 Restricted and Repetitive Behavior T-score change, median: −3, 0, 5
  SRS-2 DSM-5 Social, Communication and Interaction T-score Mean Change from Baseline: 0.6
  SRS-2 DSM-5 Social, Communication and Interaction T-score Treatment effect versus placebo: 4.8
  SRS-2 DSM-5 Social, Communication and Interaction T-score change, median: −3, 2, 5
  SRS-2 Social Communication T-score Mean Change from Baseline: 1.1
  SRS-2 Social Communication T-score Treatment effect versus placebo: 6.0
  SRS-2 Social Communication T-score change, median: −5, 0, 6
  SRS-2 Social-Motivation T-score Mean Change from Baseline: −1.4
  SRS-2 Social-Motivation T-score Treatment effect versus placebo: 0.3
  SRS-2 Social-Motivation T-score change, median: −7, −4, 8
  SRS-2 Total T-score Mean Change from Baseline: −0.4
  SRS-2 Total T-score Treatment effect versus placebo: 4.8
  SRS-2 Total T-score change, median: −3, −1, 3
[1]; DB 200 mg TID, Week 4/LOCF
  SRS-2 DSM-5 Restricted and Repetitive Behavior T-score Mean Change from Baseline: −7.6
  SRS-2 DSM-5 Restricted and Repetitive Behavior T-score Treatment effect versus placebo: −0.0
  SRS-2 DSM-5 Restricted and Repetitive Behavior T-score change, median: −22, −3, 3
  SRS-2 DSM-5 Social, Communication and Interaction T-score Mean Change from Baseline: −7.6
  SRS-2 DSM-5 Social, Communication and Interaction T-score Treatment effect versus placebo: −3.4
  SRS-2 DSM-5 Social, Communication and Interaction T-score change, median: −18, −3, 0
  SRS-2 Social Communication T-score Mean Change from Baseline: −8.3
  SRS-2 Social Communication T-score Treatment effect versus placebo: −3.4
  SRS-2 Social Communication T-score change, median: −16, −4, −1
  SRS-2 Social-Motivation T-score Mean Change from Baseline: −10.6
  SRS-2 Social-Motivation T-score Treatment effect versus placebo: −8.9
  SRS-2 Social-Motivation T-score change, median: −21, −6, 0
  SRS-2 Total T-score Mean Change from Baseline: −7.7
  SRS-2 Total T-score Treatment effect versus placebo: −2.5
  SRS-2 Total T-score change, median: −19, 3, 0
[1]; L1-79 200 mg treated group
  average improvement of SRS-2 Total, DSM-5 Social Communication and Interaction, Social Communication and Social Motivation T-scores: ~8 points
[1]; L1-79 200 mg, Week 4/LOCF
  SRS-2 T-scores: magnitude and number/percent of responders compared to placebo: greater
[2]; DB 100 mg TID
  RBS-R Compulsive Behavior Mean Change from Baseline: −1.2
  RBS-R Compulsive Behavior Treatment effect versus placebo: 0.3
  RBS-R Compulsive Behavior change, median: −2, 0, 1
  RBS-R Restricted Behavior Mean Change from Baseline: 1.3
  RBS-R Restricted Behavior Treatment effect versus placebo: 2.9
  RBS-R Restricted Behavior change, median: 0, 1, 1
  RBS-R Ritualistic Behavior Mean Change from Baseline: 0.1
  RBS-R Ritualistic Behavior Treatment effect versus placebo: 3.8
  RBS-R Ritualistic Behavior change, median: −1, 0, 2
  RBS-R Sameness Behavior Mean Change from Baseline: −0.7
  RBS-R Sameness Behavior Treatment effect versus placebo: 2.2
  RBS-R Sameness Behavior change, median: −1, −1, 0
  RBS-R Self Injurious Behavior Mean Change from Baseline: −2.2
  RBS-R Self Injurious Behavior Treatment effect versus placebo: −0.1
  RBS-R Self Injurious Behavior change, median: −2, 0, 0
  RBS-R Stereotypic Behavior Mean Change from Baseline: −0.6
  RBS-R Stereotypic Behavior Treatment effect versus placebo: −0.1
  RBS-R Stereotypic Behavior change, median: 0, 0, 0
  RBS-R Total Score Mean Change from Baseline: −3.2
  RBS-R Total Score Treatment effect versus placebo: 7.8
  RBS-R Total Score change, median: −6, −4, −1
[2]; DB 200 mg TID
  RBS-R Compulsive Behavior Mean Change from Baseline: −2.7
  RBS-R Compulsive Behavior Treatment effect versus placebo: −1.2
  RBS-R Compulsive Behavior change, median: −3, 0, 0
  RBS-R Restricted Behavior Mean Change from Baseline: −2.5
  RBS-R Restricted Behavior Treatment effect versus placebo: −1.0
  RBS-R Restricted Behavior change, median: −5, −1, 0
  RBS-R Ritualistic Behavior Mean Change from Baseline: −3.1
  RBS-R Ritualistic Behavior Treatment effect versus placebo: 0.6
  RBS-R Ritualistic Behavior change, median: −5, −1, 0
  RBS-R Sameness Behavior Mean Change from Baseline: 4.2
  RBS-R Sameness Behavior Treatment effect versus placebo: −1.3
  RBS-R Sameness Behavior change, median: −9, 0, 0
  RBS-R Self Injurious Behavior Mean Change from Baseline: −1.7
  RBS-R Self Injurious Behavior Treatment effect versus placebo: 0.4
  RBS-R Self Injurious Behavior change, median: −1, 0, 0
  RBS-R Stereotypic Behavior Mean Change from Baseline: −1.8
  RBS-R Stereotypic Behavior Treatment effect versus placebo: −1.4
  RBS-R Stereotypic Behavior change, median: −5, 0, 0
  RBS-R Total Score Mean Change from Baseline: −16.1
  RBS-R Total Score Treatment effect versus placebo: −5.1
  RBS-R Total Score change, median: −28, −2, 0
[2]; L1-79 200 mg
  RBS-R Total Score compared to placebo: mean improvements
[2]; L1-79 200 mg, placebo 78%
  RBS-R Total Score responders (improvement or stabilization of symptoms): 91%
